Source: article PMC4145316, “Cytotoxic and Apoptosis-Inducing Activity of Triterpene Glycosides from Holothuria scabra and Cucumaria frondosa against HepG2 Cells” (Marine Drugs, 2014)

Legend:
[1] = tested on: human liver (HL-7702) cells; test: MTT cytotoxicity assay, normal HL-7702 cells; format: cell-based; settings: for Ratio (HL-7702/HepG2): ratio of IC50 values against HL-7702 and HepG2 cells, selective cytotoxicity
Description: Human hepatoma (HepG2), human cervical cancer (HeLa), human leukemia (K562) and human liver (HL-7702) cells were obtained by Shanghai Institute of Biochemistry and Cell Biology, and maintained in the logarithmic phase of growth in RPMI-1640 complete medium supplemented with 2 mM L-glutamine (Sigma Chemical Co., Saint Louis, MO, USA), 100 IU/mL penicillin, 100 μg/mL streptomycin and 10% FCS at 37 °C under humidified air with 5% CO2.
The effect of compounds 1–13 on the viability of HepG2, HeLa, K562 and HL-7702 cells was determined by MIT assay as described previously. Briefly, the tumor and normal cells were seeded at 1 × 10^4 cells/well in a 96-well microtiter plate and incubated at 37 °C in a humidified atmosphere with 5% CO2. After 24 h, compounds 1–13, the positive drug CDDP or RPMI-1640 medium were added into each well, and the plates were incubated at 37 °C for the indicated time. Each concentration was repeated four wells. 50 μL of MTT solution (2 mg/mL) was added to each well 4 h before incubation end, and incubated further for 4 h. The plates were centrifuged (1400× g, 5 min) and the untransformed MTT was removed carefully by pipetting. To each well, 150 μL of DMSO was added and the absorbance was evaluated in an ELISA reader at 570 nm after 15 min. The inhibitory rates and 50% inhibitory concentrations (IC50) values towards cell viability were calculated by NDST software. Each test was performed in triplicate.

[2] = tested on: HepG2 cells; test: Apoptosis morphology, acridine orange and Hoechst 33342 staining; format: cell-based, human; settings: 2.5 and 2.75 μg/mL for 8 h; AO and Hoechst 33342 staining
Source text: The induction of apoptosis in cancer cells has emerged as an exciting possibility for the development of selective cancer therapies. Apoptosis is characterized by distinct morphological features such as cell shrinkage, loss of contact with neighboring cells, formation of cytoplastic vacuoles, chromatin condensation, nuclear-membrane blebbing, oligonucleosomal DNA fragmentation, and finally breakdown of the cell into smaller units (apoptotic bodies). To further characterize the anticancer activity of 1, disorganization of the nucleus with chromatin changes in HepG2 cells treated with 1 at the concentration of 2.5 and 2.75 μg/mL for 8 h was characterized using acridine orange (OA) and Hoechst 33342 staining under fluorescence microscope.
HepG2 cells were seeded at 1 × 10^5 cells/mL into 24-well plates and then incubated at 37 °C in a humidified atmosphere with 5% CO2. After 24 h, the cells were treated with 1 at the final concentrations of 0, 2.5 and 2.75 μg/mL for 8 h. After washed twice with PBS, cells were stained with 100 μL acridine orange (AO) solution (10 μg/mL) or Hoechst 33342 solution (5 μg/mL) for 30 min, and then visualized by fluorescence microscope (Olympus, Tokyo, Japan) with 488 nm stimulation and 500–520 nm emission or 350 nm stimulation and 460 nm emission, respectively.

[3] = tested on: HepG2 cells; test: Mitochondrial transmembrane potential, JC-1 staining; format: cell-based, human; settings: 2.5, 2.75 and 3 μg/mL for 6 h
Description: Therefore, we measured the Δψm in 1-treated HepG2 cells and control cells using JC-1 staining, and the results were shown in Figure 4. The aggregated JC-1 within normal mitochondria in HepG2 cells was dispersed to the monomeric form (green fluorescence) after treatment with 1 for 6 h. […] After treatment with 1 at 3 μg/mL, the red fluorescence disappeared and pure green fluorescence only occurred in HepG2 cells.
After treatment with 1 at the concentration of 0, 2.5, 2.75 and 3 μg/mL for 6 h, the cells were harvested, washed twice with PBS, and then incubated with 500 μL of JC-1 staining solution (5 μg/mL) at 37 °C for 30 min [43]. The stained cells were rinsed twice with PBS and resuspended in medium. The Δψm was monitored by determining the relative amounts of dual emissions from mitochondrial JC-1 monomers (green fluorescence) to aggregates (red fluorescence) using an Olympus fluorescent microscope under Argon-ion 488 nm laser excitation.

COC1C(O)C(CO)OC(OC2C(O)C(CO)OC(OC3C(C)OC(OC4C(OC5CCC6(C)C7=CC(O)C89C(=O)OC(C)(CCCC(C)C)C8(O)CCC9(C)C7CCC6C5(C)C)OCC(OS(=O)(=O)O)C4O)C(O)C3O)C2O)C1O.[Na+] (centres unmarked) [Echinoside A (1), Echinoside A]
IC50 (μg/mL) HL-7702 ([1]; MTT assay, normal hepatocytes, means ± SD (n = 3)): 3.12 ± 0.65 µg/mL
Ratio (HL-7702/HepG2) [1]: 2.08
Ratio (HL-7702/HepG2) ([1]; listed as 1): more than 2
apoptosis in HepG2 cells (morphology) [2]: could induce apoptosis
mitochondrial transmembrane potential (Δψm) [3]: significantly decreased
